Where two headings read alike, the source gives them in different places.
What was measured:
Assay type in all cases: in vivo
[1] = tested on: Echinochloa crus galli; experiment: Post-emergence herbicidal action against harmful plants; conditions: 504 h, dosage 80 g/ha, read-out: Herbicidal action against ECHCG
Source text: (§1) The abbreviations used in the tables below denote: • ABUTH Abutilon theophrasti • AMARE Amaranthus retroflexus • ECHCG Echinochloa crus galli • PHBPU Phartoitis purpureum • STEME Stellaria media • ALOMY Alopecurus myosuroides • AVEFA Avena fatua • MATIN Matricaria inodora • POLCO Fallopia convolvulus • VERPE Veronica persica 1. Pre-emergence Herbicidal Action Against Harmful Plants Seeds of monocotyledonous and dicotyledonous weed and crop plants are placed in sandy loam in wood-fibre pots, covered with soil and cultivated in a greenhouse under good growth conditions. 2 to 3 weeks after sowing, the test plants are treated at the one-leaf stage. The compounds according to the invention, formulated in the form of wettable powders (WP) or as emulsion concentrates (EC), are then sprayed as aqueous suspension or emulsion at a water application rate of 600 to 800 I/ha (converted) with the addition of 0.2% of wetting agent onto the green parts of the plants. After the test plants have been kept in the greenhouse under optimum growth conditions for about 3 weeks, the activity of the preparations is rated visually in comparison to untreated controls (herbicidal activity in percent (%): 100% activity=the plants have died, 0% activity=control plants, —=not tested).

[2] = tested on: Phartoitis purpureum; experiment: as above; conditions: 504 h, dosage 80 g/ha
Source text: as §1

[3] = tested on: Matricaria inodora; experiment: as above; conditions: Tripleurospermum inodorum, 504 h, dosage 80 g/ha, read-out: Herbicidal action against MATIN
Source text: as §1

[4] = tested on: Fallopia convolvulus; experiment: as above; conditions: 504 h, dosage 80 g/ha, read-out: Herbicidal action against POLCO
Source text: as §1

[5] = tested on: Echinochloa crus galli; experiment: Pre-emergence herbicidal action against harmful plants; conditions: dosage 320 g/ha; for pest or weed control at 320 g/ha: Echinochloa, 504 h, read-out: Herbicidal action against ECHCG
Source text: (§2) The abbreviations used in the tables below denote: • ABUTH Abutilon theophrasti • AMARE Amaranthus retroflexus • ECHCG Echinochloa crus galli • PHBPU Phartoitis purpureum • STEME Stellaria media • ALOMY Alopecurus myosuroides • AVEFA Avena fatua • MATIN Matricaria inodora • POLCO Fallopia convolvulus • VERPE Veronica persica 1. Pre-emergence Herbicidal Action Against Harmful Plants Seeds of monocotyledonous and dicotyledonous weed plants and crop plants are placed in wood-fibre pots in sandy loam and covered with soil. The compounds according to the invention and the compounds known from the prior art, formulated in the form of wettable powders (WP) or as emulsion concentrates (EC), are then applied as aqueous suspension or emulsion at a water application rate of 600 to 800 I/ha (converted) with the addition of 0.2% of wetting agent to the surface of the covering soil. After the treatment, the pots are placed in a greenhouse and kept under good growth conditions for the test plants. The visual assessment of the damage to the test plants is carried out after a trial period of 3 weeks by comparison with untreated controls (herbicidal activity in percent (%): 100% activity=the plants have died, 0% activity=like control plants, —=not tested). The results of comparative table A show the compounds according to the invention have a higher herbicidal activity than the compounds of the greatest structural similarity known from the closest prior art.

[6] = tested on: Amaranthus retroflexus; experiment: as above; conditions: 504 h, dosage 320 g/ha, read-out: Herbicidal action against AMARE
Source text: as §2

[7] = tested on: Phartoitis purpureum; experiment: as above; conditions: dosage 320 g/ha; for Herbicidal action against PHPBU: visual assessment after 3 weeks (Table C); for Herbicidal action against PHBPU: visual assessment after 3 weeks (Table A)
Source text: as §2

[8] = tested on: Veronica persica; experiment: as above; conditions: 504 h, dosage 320 g/ha, visual assessment after 3 weeks (Table A), read-out: Herbicidal action against VERPE
Source text: as §2

[9] = tested on: Stellaria media; experiment: as above; conditions: 504 h, dosage 320 g/ha, visual assessment after 3 weeks (Table A), read-out: Herbicidal action against STEME
Source text: as §2

[10] = tested on: Matricaria inodora; experiment: as above; conditions: dosage 320 g/ha; for pest or weed control at 320 g/ha: Tripleurospermum inodorum, 504 h, read-out: Herbicidal action against MATIN
Source text: as §2

[11] = tested on: Abutilon theophrasti; experiment: as above; conditions: dosage 320 g/ha; for pest or weed control at 320 g/ha: Abutilon theophrasti, 504 h, read-out: Herbicidal action against ABUTH
Source text: as §2

[12] = tested on: SETVI; experiment: as above; conditions: dosage 320 g/ha, visual assessment after 3 weeks (Table C)
Source text: as §2, with “Seeds” for “The abbreviations used in the tables below denote: • ABUTH Abutilon theophrasti • AMARE Amaranthus retroflexus • ECHCG Echinochloa crus galli • PHBPU Phartoitis purpureum • STEME Stellaria media • ALOMY Alopecurus myosuroides • AVEFA Avena fatua • MATIN Matricaria inodora • POLCO Fallopia convolvulus • VERPE Veronica persica 1. Pre-emergence Herbicidal Action Against Harmful Plants Seeds”

[13] = tested on: VIOTR; experiment: as above; conditions: dosage 320 g/ha, visual assessment after 3 weeks (Table C)
Source text: as §2, with “Seeds” for “The abbreviations used in the tables below denote: • ABUTH Abutilon theophrasti • AMARE Amaranthus retroflexus • ECHCG Echinochloa crus galli • PHBPU Phartoitis purpureum • STEME Stellaria media • ALOMY Alopecurus myosuroides • AVEFA Avena fatua • MATIN Matricaria inodora • POLCO Fallopia convolvulus • VERPE Veronica persica 1. Pre-emergence Herbicidal Action Against Harmful Plants Seeds”

[14] = tested on: VIOTR; experiment: Post-emergence herbicidal action against harmful plants; conditions: dosage 80 g/ha, visual rating after about 3 weeks (Table E)
Method: as §1, with “Seeds” for “The abbreviations used in the tables below denote: • ABUTH Abutilon theophrasti • AMARE Amaranthus retroflexus • ECHCG Echinochloa crus galli • PHBPU Phartoitis purpureum • STEME Stellaria media • ALOMY Alopecurus myosuroides • AVEFA Avena fatua • MATIN Matricaria inodora • POLCO Fallopia convolvulus • VERPE Veronica persica 1. Pre-emergence Herbicidal Action Against Harmful Plants Seeds”

[15] = tested on: Avena fatua; experiment: as above; conditions: dosage 80 g/ha, visual rating after about 3 weeks (Table D)
Source text: as §1

[16] = tested on: Amaranthus retroflexus; experiment: as above; conditions: 504 h, dosage 80 g/ha, visual rating after about 3 weeks (Table D), read-out: Herbicidal action against AMARE
Source text: as §1

[17] = tested on: Veronica persica; experiment: as above; conditions: 504 h, dosage 80 g/ha, visual rating after about 3 weeks (Table D), read-out: Herbicidal action against VERPE
Source text: as §1

[18] = tested on: Stellaria media; experiment: as above; conditions: 504 h, dosage 80 g/ha, visual rating after about 3 weeks (Table D), read-out: Herbicidal action against STEME
Source text: as §1

[19] = tested on: Avena fatua; experiment: Pre-emergence herbicidal action against harmful plants; conditions: dosage 320 g/ha, visual assessment after 3 weeks (Table A)
Source text: as §2

[20] = tested on: Alopecurus myosuroides; experiment: as above; conditions: dosage 320 g/ha, visual assessment after 3 weeks (Table A)
Source text: as §2

[21] = visual rating after about 3 weeks (Table E)
[22] = visual rating after about 3 weeks (Table E), read-out: Herbicidal action against PHPBU
[23] = visual assessment after 3 weeks (Table A)
[24] = visual assessment after 3 weeks (Table C)
[25] = visual rating after about 3 weeks (Table D)
[26] = visual rating after about 3 weeks (Table D), read-out: Herbicidal action against PHBPU

| SMILES | pest or weed control at 80 g/ha [1, 21] [%] | pest or weed control at 80 g/ha [2, 22] [%] | pest or weed control at 80 g/ha [3, 21] [%] | pest or weed control at 80 g/ha [4, 21] [%] | pest or weed control at 320 g/ha [5, 23] [%] | pest or weed control at 320 g/ha [6, 24] [%] | Herbicidal action against PHPBU [7] [%] | pest or weed control at 320 g/ha [8] [%] | pest or weed control at 320 g/ha [9] [%] | pest or weed control at 320 g/ha [10, 23] [%] | pest or weed control at 320 g/ha [11, 23] [%] | Herbicidal action against SETVI [12] [%] | Herbicidal action against VIOTR [13] [%] | Herbicidal action against VIOTR [14] [%] | pest or weed control at 80 g/ha [1, 25] [%] | Herbicidal action against AVEFA [15] [%] | pest or weed control at 80 g/ha [16] [%] | pest or weed control at 80 g/ha [2, 26] [%] | pest or weed control at 80 g/ha [17] [%] | pest or weed control at 80 g/ha [18] [%] | other results |
| --- | --- | --- | --- | --- | --- | --- | --- | --- | --- | --- | --- | --- | --- | --- | --- | --- | --- | --- | --- | --- | --- |
| CCS(=O)(=O)c1ccc(C(=O)C2=C(O)CCCC2=O)c(C(F)(F)F)c1OCC(=O)N(C)OC [Compound E8] | 90 | 80 | 90 | 90 | 100 | 100 | 90 | 100 | 100 | 100 | 100 | 90 | 100 | 90 |  |  |  |  |  |  | Herbicidal action against ECHCG [5, 24]: 100%; Herbicidal action against MATIN [10, 24]: 100%; Herbicidal action against ABUTH [11, 24]: 100% |
| CCS(=O)(=O)c1ccc(C(=O)C2=C(O)CCCC2=O)c(Cl)c1OCC(=O)N(C)OC [Compound S8, reference compound] | 80 | 80 | 60 | 80 |  | 90 | 70 |  |  |  |  | 50 | 20 | 80 |  |  |  |  |  |  | pest or weed control at 320 g/ha [5, 24]: 60%; pest or weed control at 320 g/ha [10, 24]: 90%; pest or weed control at 320 g/ha [11, 24]: 90% |
| CN(C)C(=O)COc1c(Cl)ccc(C(=O)C2=C(O)CCCC2=O)c1C(F)(F)F [Compound E1] |  |  |  |  | 100 |  |  | 100 | 90 | 100 | 100 |  |  |  | 90 | 80 | 80 | 90 | 90 | 90 | pest or weed control at 80 g/ha [3, 25]: 100%; pest or weed control at 80 g/ha [4, 25]: 100%; Herbicidal action against AVEFA [19]: 90%; Herbicidal action against ALOMY [20]: 100%; pest or weed control at 320 g/ha [6, 23]: 100%; Herbicidal action against PHBPU [7]: 80% |
| CN(C)C(=O)COc1c(Cl)ccc(C(=O)C2=C(O)CCCC2=O)c1Cl [Compound S1, reference compound] |  |  |  |  | 30 |  |  | 70 | 80 | 100 | 90 |  |  |  | 50 | 50 | 80 | 70 | 70 | 70 | pest or weed control at 80 g/ha [3, 25]: 100%; pest or weed control at 80 g/ha [4, 25]: 60%; Herbicidal action against AVEFA [19]: 20%; Herbicidal action against ALOMY [20]: 40%; pest or weed control at 320 g/ha [6, 23]: 60%; Herbicidal action against PHBPU [7]: 40% |

Reference: patent publication US8557741B2, “3-aminocarbonyl-substituted benzoylcyclohexanediones and their use as herbicides” (Bayer CropScience AG, priority 2010, dated 2013)
